Key:
Format in all cases: physicochemical
[1] = Competitive slurrying experiments (XRPD follow-up); conditions: for Polymorphic stability/conversion in competitive slurrying: MeOH suspension 30 mg/mL, 14 days, 5° C., room temperature and reflux (65° C.)
Experimental: The suspensions at 5° C. and r.t. were prepared in 4 mL vials with caps and equipped with a small magnetic stirrer bar. The suspensions were stirred at approximately 500 rpm. for two weeks. The suspensions prepared at high temperature were prepared in 10 mL Erlenmeyer flask equipped with a magnetic stirrer bar and reflux condenser.
Samples of the suspensions were taken at time=0, 1 day, 7 days and 14 days and investigated by XRPD.

[2] = Stress stability test for solid state transformation; conditions: 60° C., 60° C./75% relative humidity and 80° C./75% relative humidity; 4 weeks
Experimental: Polymorph Form C, Form X and mixtures of the two polymorphic forms C+X have all been tested at different conditions of temperature and relative humidity for signs of solid state transformation. The stress stability test was carried out at three sets of conditions: 60° C., 60° C./75% relative humidity and 80° C./75% relative humidity, and samples were analyzed after 1, 2 and 4 weeks, ie. after 7, 14 and 28 days.
One 1.8 ml amber screw top vial (27267-U, Supelco) containing between 50 and 100 mg {4-[(1R,3S)-3-((R)-1-Naphthalen-1-yl-ethylamino)-cyclopentyl]-phenoxy}-acetic acid was tested per individual set of conditions. The vials to be tested at 60° C. were closed with a PTFE lined black polypropylene solid cap (27416, Supelco) and placed in a thermostated heating cabinet. The vials to be tested at 60° C./75% relative humidity and 80° C./75% relative humidity were placed uncapped in a desiccator containing a saturated NaCl solution. The desiccator was subsequently placed in a thermostated heating cabinet.
The samples were analyzed at 1, 2 and 4 weeks for • 1. Visual appearance • 2. HPLC assay and impurities • 3. Polymorph characterization

[3] = Aqueous solubility as a function of pH; conditions: room temperature, conclusion from Table 6
Experimental: The aqueous solubility of Form C and Form X was determined as a function of pH at 25° C. in 0.1N HCl (pH 1.0) and in Sorensen phosphate buffers at pH 2.0, 4.0, 6.0 and 8.0. For each pH value two individual determinations were made. Form C or Form X was weighed out (11 mg for pH 1, 4 mg for pH 2-8) in scintillation vials and 4 ml 0.1N HCl or buffer was added. The vials were shaken for 24 hours at 25° C. After 24 hours it was checked that the vial still contained undissolved material. The suspensions were filtered through a 0.45 μm filter, which was first saturated with app. 0.5 ml filtrate. The resulting filtrates were diluted and analyzed by HPLC vs. a standard curve.

[4] = Transition temperature of the enantiotropic polymorphs from melting enthalpy and melting points; conditions: estimated from melting enthalpy and melting points of Form C and Form X
Experimental: From careful measurements of melting enthalpy and melting points of both forms, the transition temperature has been estimated to lie between 120 to 145° C.
Differential scanning calorimetry (DSC): DSC experiments were carried out using a Perkin Elmer DSC8500 system. About 0.5-3 mg of sample was used for the measurements. An aluminium pan was used for the analysis and was sealed by applying pressure by hand and pushing each part of the pan together. The temperature was ramped from −60 to 270° C. at 20° C./min. Nitrogen was used as the purge gas with a flow rate of 20 mL/min.

[5] = Thermo gravimetric analysis (TGA); conditions: Graph 4a (Form C sample), ±2° C.
Experimental: Thermo gravimetric analysis (TGA): TGA experiments were conducted using a Perkin Elmer Pyris 1 TGA instrument. About 10-20 mg of sample was loaded into a ceramic pan for the measurements. The sample temperature was ramped from 25 to 350° C. at 10° C./min. Nitrogen was used as the purge gas at a flow rate of 40 mL/min.

| SMILES | Polymorphic stability/conversion in competitive slurrying [1] | 4 week stress stability test, solid state transformation [2] | Polymorphic conversion in competitive slurrying ([1]; competitive slurrying at 110° C.) | Solubility of Form X relative to Form C [3] | Transition temperature (estimated) [4] | Temperature below which stable towards degradation (TGA trail) [5] | Polymorphic stability/conversion in competitive slurrying ([1]; listed as mixtures of Form X+C) | Transition temperature at which the two polymorphs are equally stable ([1]; lower bound from competitive slurrying of Form C and Form X) |
| --- | --- | --- | --- | --- | --- | --- | --- | --- |
| C[C@@H](NC1CCC(c2ccc(OCC(=O)O)cc2)C1)c1cccc2ccccc12 (stereo in doubt) [Form C, {4-[(1R,3S)-3-((R)-1-Naphthalen-1-yl-ethylamino)-cyclopentyl]-phenoxy}-acetic acid] | stable at all three temperatures | without any solid state transformation | – | – | – | – | – | – |
| C[C@@H](NC1CCC(c2ccc(OCC(=O)O)cc2)C1)c1cccc2ccccc12 (stereo in doubt) [Form X, {4-[(1R,3S)-3-((R)-1-Naphthalen-1-yl-ethylamino)-cyclopentyl]-phenoxy}-acetic acid] | convert to pure Form C at all three temperatures | without any solid state transformation | transformation of Form X to Form C | higher compared to Form C | – | – | – | – |
| C[C@@H](NC1CCC(c2ccc(OCC(=O)O)cc2)C1)c1cccc2ccccc12 (stereo in doubt) [{4-[(1R,3S)-3-((R)-1-Naphthalen-1-yl-ethylamino)-cyclopentyl]-phenoxy}-acetic acid] | – | without any solid state transformation | – | – | 120 to 145 °C | below 255 °C | convert to pure Form C at all three temperatures | above 110 °C |

From patent publication US9056814B2, “Polymorphic form of a calcimimetic compound” (LEO PHARMA A/S, priority 2010, dated 2015)
